The results in this text go back to patent US8268751B2, “Combination of active substances with insecticidal properties” (Bayer Cropscience AG, priority 2003, dated 2012).

Assay type in all cases: in vivo
Experiment [1] deals with Phaedon cochleariae larvae. Put plainly: Phaedon cochleariae larvae test (cabbage leaf dip). As to conditions: Table B, 0.16 ppm. The source says: (§1) The expected action for a given combination of two active compounds can be calculated as follows, according to S. R. Colby, Weeds 15 (1967), 20-22:
(§2) If • X is the kill rate, expressed as a percentage of the untreated control, when employing active compound A at an application rate of m g/ha or in a concentration of m ppm, • Y is the kill rate, expressed as a percentage of the untreated control, when employing active compound B at an application rate of n g/ha or in a concentration of n ppm and • E is the kill rate, expressed as a percentage of the untreated control, when employing active compounds A and B at application rates of m and n g/ha or in a concentration of m and n ppm, then
(§3) If the actual insecticidal kill rate exceeds the calculated value, the action of the combination is superadditive, i.e. a synergistic effect is present. In this case, the actually observed kill rate must exceed the value calculated using the above formula for the expected kill rate (E).
Phaedon cochleariae Larvae Test
To produce a suitable preparation of active compound, 1 part by weight of active compound is mixed with the stated amounts of solvent and emulsifier, and the concentrate is diluted with emulsifier-containing water to the desired concentration. […]
After the desired period of time, the kill in % is determined. […] The kill rates determined are calculated using Colby's formula (see page 39).

The test system of experiment [2] is Plutella xylostella, resistant strain. As to the kind of experiment: Plutella-xylostella test (resistant strain), cabbage leaf dip.
Text: as §1, §2, §3
Plutella-xylostella Test (Resistant Strain)
(§4) To produce a suitable preparation of active compound, 1 part by weight of active compound is mixed with the stated amounts of solvent and emulsifier, and the concentrate is diluted with emulsifier-containing water to the desired concentration.
Cabbage leaves (Brassica oleracea) are treated by being dipped into the preparation of active compound of the desired concentration and are populated with caterpillars of the diamond back moth (Plutella xylostella, resistant strain), while the leaves are still moist.
After the desired period of time, the kill in % is determined. 100% means that all caterpillars have been killed; 0% means that none of the caterpillars have been killed. The kill rates determined are calculated using Colby's formula (see page 39).

A further experiment has as its system Spodoptera frugiperda. Put plainly: Spodoptera frugiperda test (cabbage leaf dip). As to conditions: Table D, 0.032 ppm.
Text: as §1, §2, §3
Spodoptera frugiperda Test […]
After the desired period of time, the kill in % is determined: 100% means that all caterpillars have been killed; 0% means that none of the caterpillars have been killed. The kill rates determined are calculated using Colby's formula (see page 39).

A further experiment relates to Myzus persicae. Put plainly: Myzus persicae test (cabbage leaf dip).
Text: as §1, §2, §3, §4
Cabbage leaves (Brassica oleracea) which are heavily infested by the green peach aphid (Myzus persicae) are treated by being dipped into the preparation of active compound of the desired concentration.
After the desired period of time, the kill in % is determined. 100% means that all aphids have been killed; 0% means that none of the aphids have been killed. The kill rates determined are calculated using Colby's formula (see page 39).

In the case of `CC1(C)C(C=C(Cl)Cl)C1C(=O)OC(C#N)c1ccc(F)c(Oc2ccccc2)c1` (stereo not drawn) [(2-3) betacyfluthrin, betacyfluthrin], the “Kill rate in % after 3 d, found” value in experiment [1] was found to be 15%. Moreover, the “Kill rate in % after 6 d, found” value is given as 0% in experiment [2] (Table C1, 0.0064 ppm) and 0% in the experiment with Spodoptera frugiperda.

Take `CC1(C)C(C=C(Br)Br)C1C(=O)OC(C#N)c1cccc(Oc2ccccc2)c1` (stereo not drawn) [(2-6) deltamethrin, deltamethrin]: the “Kill rate in % after 6 d, found” value in the experiment on Myzus persicae (Table A1, 0.16 ppm) was found to be 50%.

Consider `CC1(C)C(/C=C(\Cl)C(F)(F)F)C1C(=O)OC(C#N)c1cccc(Oc2ccccc2)c1` (stereo not drawn) [(2-12) lambda-cyhalothrin, lambda-cyhalothrin], for which the “Kill rate in % after 6 d, found” value is recorded as 0% with Myzus persicae (Table A2, 0.032 ppm) and 0% in experiment [2] (Table C2, 0.0064 ppm).

Regarding `Cc1cc(Cl)cc(C(=O)NC(C)C)c1NC(=O)c1cc(C(F)(F)F)nn1-c1ncccc1Cl` [Example I-1-9], the “Kill rate in % after 6 d, found” value in the experiment on Myzus persicae (Table A1, 4 ppm) is 15%; with Myzus persicae (Table A2, 0.8 ppm), 0%; in experiment [2] (Table C1, 0.0064 ppm), 0%; in experiment [2] (Table C2, 0.0064 ppm), 10%; in the experiment on Spodoptera frugiperda, 75%. For the same molecule, in experiment [1], the “Kill rate in % after 3 d, found” value is 0%.
